Measurements taken from patent US20020094522A1, “Means and methods for monitoring non-nucleoside reverse transcriptase inhibitor antiretroviral therapy and guiding therapeutic decisions in the treatment of HIV/AIDS” (priority 2000, published 2002).
Where two headings read alike, the source gives them in different places.

What was measured:
Assay type in all cases: cell-based, HIV-1
[1] = test system: E138A-RTV (HIV reverse transcriptase E138A); assay: Phenotypic susceptibility assay, E138A-RTV; details: site directed mutant
Source text: The resistance test vectors containing a functional luciferase gene cassette were constructed and host cells were transfected with the resistance test vector DNA. The resistant test vectors contained patient-derived reverse transcriptase and protease sequences that were either susceptible or resistant to the antiretroviral agents, such as nucleoside reverse transcriptase inhibitors, non-nucleoside reverse transcriptase inhibitors and protease inhibitors. The resistance test vector viral particles produced by transfecting the resistance test vector DNA into host cells, either in the presence or absence of protease inhibitors, were used to infect target host cells grown either in the absence of NRTI or NNRTI or in the presence of increasing concentrations of the drug. The amount of luciferase activity produced in infected target host cells in the presence of drug was compared to the amount of luciferase produced in infected target host cells in the absence of drug. […] The IC50 values were determined by plotting percent drug inhibition vs. log10 drug concentration.
(§1) Host cells were seeded in 10-cm-diameter dishes and were transfected several days after plating with resistance test vector plasmid DNA and the envelope expression vector. […] HIV capsid protein (p24) levels in the harvested cell culture media were determined by an EIA method as described by the manufacturer (SIAC; Frederick, Md.). […] The inhibitory effect of the drug was determined using the following equation: […]
The E138A mutation alone and in combination with Y188L was introduced into resistance test vectors using the megaprimer method for site-directed mutagenesis (Sakar and Sommar, Ibid.). Resistance test vectors containing the E138A mutation (E138A-RTV) or the E138 mutation along with the […] mutation (E138A-Y188L-RTV) were then tested using the phenotypic assay described earlier and the results were compared to those determined using a genetically defined resistance test vector that was wild type at positions 188 and 138.

[2] = test system: RTV-B clone 1 (patient sample B); assay: Phenotypic susceptibility assay, RTV-B clone 1; details: values <1 = increased susceptibility
Source text: (§2) The resistance test vectors containing a functional luciferase gene cassette were constructed and host cells were transfected with the resistance test vector DNA. The resistant test vectors contained patient-derived reverse transcriptase and protease sequences that were either susceptible or resistant to the antiretroviral agents, such as nucleoside reverse transcriptase inhibitors, non-nucleoside reverse transcriptase inhibitors and protease inhibitors. The resistance test vector viral particles produced by transfecting the resistance test vector DNA into host cells, either in the presence or absence of protease inhibitors, were used to infect target host cells grown either in the absence of NRTI or NNRTI or in the presence of increasing concentrations of the drug. The amount of luciferase activity produced in infected target host cells in the presence of drug was compared to the amount of luciferase produced in infected target host cells in the absence of drug. Drug resistance was measured as the amount of drug required to inhibit by 50% the luciferase activity detected in the absence of drug (inhibitory concentration 50%, IC50). The IC50 values were determined by plotting percent drug inhibition vs. log10 drug concentration.
(§3) Host cells were seeded in 10-cm-diameter dishes and were transfected several days after plating with resistance test vector plasmid DNA and the envelope expression vector. Transfections were performed using a calcium-phosphate precipitation procedure. The cell culture media containing the DNA precipitate was replaced with fresh medium, from one to 24 hours, after transfection. Cell culture media containing resistance test vector viral particles was harvested one to four days after transfection and was passed through a […] filter before being stored at −80° C. HIV capsid protein (p24) levels in the harvested cell culture media were determined by an EIA method as described by the manufacturer (SIAC; Frederick, Md.). […] The inhibitory effect of the drug was determined using the following equation: […]

[3] = test system: RTV-1060 (patient sample 98-1060); assay: Phenotypic susceptibility assay, RTV-1060; details: RTV-1060, patient-derived pool
Protocol: Transfections were performed using a calcium-phosphate precipitation procedure. […] Cell lysates were assayed for luciferase activity (FIG. 3).
The drug inhibition curves are shown in (FIG. 3).
This patient had been previously treated with d4T […] , indinavir (a PRI and efavirenz (an NNRTI). A second resistance test vector was constructed as described in Example 1 from a patient sample designated 98-1060. This patient had been previously treated with d4T […]. indinavir (a PRI) and efavirnez (an NNRTI). Isolation of viral RNA and RT/PCR was used to generate a patient derived segment that comprised viral sequences coding for all of PR and aa 1-313 of RT. The PDS was inserted into an indicator gene viral vector to generate resistance test vectors designated RTV-644 and RTV-1060. RTV-644 and RTV-1060 were then tested in a phenotypic assay to determine accurately and quantitatively the level of susceptibility to a panel of anti-retroviral drugs. […] An IC50 was determined for the resistance test vector pool for each drug tested. The pattern of susceptiblity to all of the drugs tested was examined and compared to known patterns of susceptibility.

K101E-G190S-RTV = assay: Phenotypic susceptibility assay, K101E-G190S-RTV
Source text: as §2
as §3, with “Md.). Before infection, target cells (293 and 293/T) were plated in cell culture media. Control infections were performed using cell culture media from mock transfections (no DNA) or transfections containing the resistance test vector plasmid DNA without the envelope expression plasmid. One to three or more days after infection the media was removed and cell lysis buffer (Promega) was added to each well.” for “Md.).”
where RLUluc [drug] is the relative light unit of luciferase activity in infected cells in the presence of drug and RLUluc is the Relative Light Unit of luciferase activity in infected cells in the absence of drug. IC50 values were obtained from the sigmoidal curves that were generated from the data by plotting the percent inhibition of luciferase activity vs. the log10 drug concentration.
The K101E and G190S mutations were introduced alone and in combination into resistance test vectors using the mega-primer method for site-directed mutagenesis (Sakar and Sommar, Ibid.). Resistance test vectors containing the K101E mutation (K101E-RTV), the G190S mutation (G190S-RTV) were then tested using the phenotypic assay described earlier and the results were compared to those determined using a genetically defined resistance test vector that was wild type at positions 101 and 190.

[4] = test system: G190A-RTV (HIV reverse transcriptase G190A); assay: Phenotypic susceptibility assay, G190A-RTV
Source text: as §2
as §3, with “Md.). Before infection, target cells (293 and 293/T) were plated in cell culture media. Control infections were performed using cell culture media from mock transfections (no DNA) or transfections containing the resistance test vector plasmid DNA without the envelope expression plasmid. One to three or more days after infection the media was removed and cell lysis buffer (Promega) was added to each well.” for “Md.).”
where RLUluc [drug] is the relative light unit of luciferase activity in infected cells in the presence of drug and RLUluc is the Relative Light Unit of luciferase activity in infected cells in the absence of drug. […]

[5] = test system: L100I-RTV (HIV reverse transcriptase L100I); assay: Phenotypic susceptibility assay, L100I-RTV; details: site directed mutant
Source text: as §2
as §1, with “vector. Transfections were performed using a calcium-phosphate precipitation procedure.” for “vector.”
(§4) The mutations Y188L, L100I and K103N were introduced alone and in combinationn into resistance test vectors using the mega-primer method for site-directed mutagenesis (Sakar and Sommar, Ibid.). […] We determined the pattern of phenotypic susceptibility to the NNRTIs, delavirdine, nevlrapine and efavirenz, in all 6 vectors.

[6] = test system: K103N-RTV (HIV reverse transcriptase K103N); assay: Phenotypic susceptibility assay, K103N-RTV; details: site directed mutant
Source text: as §2
as §1, with “vector. Transfections were performed using a calcium-phosphate precipitation procedure.” for “vector.”
as §4

[7] = values <1 = increased susceptibility

Row | SMILES | fold change in susceptibility compared to wild type control RTV [1] | fold change in susceptibility (IC50) [2] | fold decrease in susceptibility (IC50) [3] | fold change in susceptibility compared to wild type control RTV (K101E-G190S-RTV) | fold change in susceptibility compared to wild type control RTV (K101E-G190S-RTV; [7]) | change in susceptibility compared to wild type reference RTV [4] | fold loss of susceptibility compared to wild type control RTV [5] | fold loss of susceptibility compared to wild type control RTV [6] | change in susceptibility compared to wild type reference RTV ([4]; listed as delviridine) | fold change in susceptibility compared to wild type control RTV ([4]; site directed mutant)
1 | Cc1ccnc2c1NC(=O)c1cccnc1N2C1CC1 [nevirapine] | 1.3 fold | 640 fold | greater than 800 fold | greater than 800 fold | 75 fold | markedly less susceptible to nevirapine | 3 fold | 55 fold |  | 
2 | CC(C)Nc1cccnc1N1CCN(C(=O)c2cc3cc(NS(C)(=O)=O)ccc3[nH]2)CC1 [delavirdine] | 1.6 fold | 0.55 fold | 1.5 fold | 1.4 fold | 0.5 fold | slightly more susceptible to delavirdine | 30 fold | 50 fold | increased susceptibility | 
3 | O=C1Nc2ccc(Cl)cc2[C@@](C#CC2CC2)(C(F)(F)F)O1 [efavirenz] | 1.4 fold | 250 fold | 900 fold | greater than 250 fold | 7.6 fold |  | 10 fold | 30 fold |  | 8 fold
